Data on ten compounds can be found in patent US20240228469A1, “PCSK9 INHIBITORS AND METHODS OF USE THEREOF” (AstraZeneca AB, priority 2022, published 2024).

Test [1] deals with PCSK9 (Homo sapiens, UniProt Q8NBP7, G670E/V474I). Kind of test: biochemical.
Test [2] deals with GSK3β (Glycogen synthase kinase-3 beta) (Homo sapiens, UniProt P49841). Kind of test: Assay 6 GSK3β assay (ThermoFisher Z-Lyte FRET). Format: biochemical. The conditions noted are these: ATP Conc: 10 μM, geometric mean; read-out: Assay 6 (GSK3β FRET-Z-Lyte Cr) GMean IC50. As to the method: This assay measures the activity of the compounds at GSK33 (Glycogen synthase kinase-3 beta).
The test compounds were screened in 1% DMSO (final) in the well. For 10 point titrations, 3-fold serial dilutions are conducted from the starting concentration of 10 PM.
Bar-coded Corning, low volume NBS, black 384-well plate • 1. 2.5 μL—4× Test Compound or 100 nL 100× plus 2.4 μL kinase buffer • 2. 5 μL—2× Peptide/Kinase Mixture • 3. 2.5 μL—4×ATP Solution • 4. 30-second plate shake • 5. 60-minute Kinase Reaction incubation at room temperature • 6. 5 μL—Development Reagent Solution • 7. 30-second plate shake • 8. 60-minute Development Reaction incubation at room temperature • 9. Read on fluorescence plate reader and analyse the data
In step 2, the 2×GSK3β (GSK3 beta)/Ser/Thr (Glycogen synthase kinase-3 beta/Serine/Threonine) 09 mixture is prepared in 50 mM HEPES (4-(2-hydroxyethyl)-1-piperazineethanesulfonic acid) pH 7.5, 0.01% BRIJ-35, 10 mM MgCl2, 1 mM EGTA (egtazic acid). The final 10 μL Kinase Reaction consists of 0.22-0.92 ng GSK3β (GSK3 beta) and 2 PM Ser/Thr 09 in 50 mM HEPES pH 7.5, 0.01% BRIJ-35, 10 mM MgCl2, 1 mM EGTA.
In step 3 the ATP Solution is diluted to a 4× working concentration in Kinase Buffer (50 mM HEPES pH 7.5, 0.01% BRIJ-35, 10 mM MgCl2, 1 mM EGTA).
In Step 6 the Development Reagent is diluted 1:512 in Development Buffer (10× Novel PKC Lipid Mix: 2 mg/mL Phosphatidyl Serine, 0.2 mg/mL DAG in 20 mM HEPES, pH 7.4, 0.3% CHAPS).
SelectScreen® Kinase Profiling Service uses XLfit from IDBS. The dose response curve is curve fit to model number 205 (sigmoidal dose-response model).

Test [3] has as its target T1, potassium ion channel hERG (Homo sapiens, UniProt Q12809).
T1 construct: expressed in transfected cells; host or cells: Chinese hamster ovary K1 (CHO)
As to the kind of experiment: Assay 5 hERG assay (patch clamp, CHO cells over-expressing hERG). The class given is cell-based. The conditions noted are these: SyncroPatch 384PE, room temperature, geometric mean, read-out: Assay 5 (hERG Hu CHO if EPh CR-Syncro) GMean IC50. As to the method: This assay (human Ether-d-go-go-Related Gene) measures activity of the compounds at the potassium ion channel hERG (human Ether-d-go-go-Related Gene).
Experiments were performed on the SyncroPatch 384PE high throughput patch clamp platform at room temperature and medium resistance chips with 4 patch holes per site. Chinese hamster ovary K1 (CHO) cell lines over-expressing the ion channel of choice (hERG) were used in assay-ready format and kept in liquid nitrogen or were used from live culture. Cells were either thawed and diluted in HBSS or were detached from flasks and resuspended in HBSS. HBSS comprised 140 mM NaCl, 4 mM KCl, 10 mM HEPES and 5 mM Glucose (pH7.4). The internal patch clamp solution was KF 120 mM, KCl 20 mM, HEPES 10 mM, EGTA 10 mM, and 25 PM Escin (pH 7.2). After the sealing process was complete, the external solution was exchanged for external patch clamp solution comprising NaCl 80 mM, KCl 4 mM, HEPES 10 mM, CaCl2 2 mM, MgCl2 1 mM, glucose 5 mM, and NMDG 60 mM (pH 7.4). All solutions were stored at room temperature, except Escin, which was stored at 4° C. All test compounds were dispensed in greiner-bio 384 well plates and tested in a 6 point cumulative assay (final DMSO concentration 0.33%). Only wells that passed previously agreed acceptance criteria for this platform were used in this analysis (30 MegaOhm seal resistance, Z prime >0.4 and current size >0.2 nA). […]

Chain of GSK3β (Glycogen synthase kinase-3 beta) (P49841 whole entry): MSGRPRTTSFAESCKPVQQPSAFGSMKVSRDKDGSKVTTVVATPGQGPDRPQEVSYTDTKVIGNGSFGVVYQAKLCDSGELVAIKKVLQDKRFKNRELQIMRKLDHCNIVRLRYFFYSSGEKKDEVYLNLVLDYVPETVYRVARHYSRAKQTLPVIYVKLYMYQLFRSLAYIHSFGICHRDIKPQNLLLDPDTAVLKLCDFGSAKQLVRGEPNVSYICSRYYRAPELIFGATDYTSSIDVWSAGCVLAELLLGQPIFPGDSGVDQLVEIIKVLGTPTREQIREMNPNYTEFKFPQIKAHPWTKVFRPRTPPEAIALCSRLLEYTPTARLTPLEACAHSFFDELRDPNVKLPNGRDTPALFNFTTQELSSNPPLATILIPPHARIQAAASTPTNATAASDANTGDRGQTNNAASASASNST
Chain of PCSK9 (Q8NBP7 with tags, fused parts or gaps V474I/G670E): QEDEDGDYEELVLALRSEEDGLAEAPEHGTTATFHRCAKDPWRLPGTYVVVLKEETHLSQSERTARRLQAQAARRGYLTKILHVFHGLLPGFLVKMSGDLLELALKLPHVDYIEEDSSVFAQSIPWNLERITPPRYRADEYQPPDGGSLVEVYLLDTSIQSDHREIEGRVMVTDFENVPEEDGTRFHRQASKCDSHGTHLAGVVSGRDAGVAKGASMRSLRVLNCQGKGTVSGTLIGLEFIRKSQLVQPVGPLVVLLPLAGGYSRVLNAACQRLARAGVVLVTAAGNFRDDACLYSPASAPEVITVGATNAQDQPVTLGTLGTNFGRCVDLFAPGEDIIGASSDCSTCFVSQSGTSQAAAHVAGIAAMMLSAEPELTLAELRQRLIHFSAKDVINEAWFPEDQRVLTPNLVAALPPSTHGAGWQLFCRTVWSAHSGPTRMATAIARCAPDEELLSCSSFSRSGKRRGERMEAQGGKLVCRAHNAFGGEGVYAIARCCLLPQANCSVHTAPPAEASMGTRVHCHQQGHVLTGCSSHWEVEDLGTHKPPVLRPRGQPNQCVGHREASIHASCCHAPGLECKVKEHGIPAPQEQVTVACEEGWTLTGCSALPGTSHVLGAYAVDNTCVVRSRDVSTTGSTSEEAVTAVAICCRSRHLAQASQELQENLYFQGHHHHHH
T1 sequence (Q12809 whole entry): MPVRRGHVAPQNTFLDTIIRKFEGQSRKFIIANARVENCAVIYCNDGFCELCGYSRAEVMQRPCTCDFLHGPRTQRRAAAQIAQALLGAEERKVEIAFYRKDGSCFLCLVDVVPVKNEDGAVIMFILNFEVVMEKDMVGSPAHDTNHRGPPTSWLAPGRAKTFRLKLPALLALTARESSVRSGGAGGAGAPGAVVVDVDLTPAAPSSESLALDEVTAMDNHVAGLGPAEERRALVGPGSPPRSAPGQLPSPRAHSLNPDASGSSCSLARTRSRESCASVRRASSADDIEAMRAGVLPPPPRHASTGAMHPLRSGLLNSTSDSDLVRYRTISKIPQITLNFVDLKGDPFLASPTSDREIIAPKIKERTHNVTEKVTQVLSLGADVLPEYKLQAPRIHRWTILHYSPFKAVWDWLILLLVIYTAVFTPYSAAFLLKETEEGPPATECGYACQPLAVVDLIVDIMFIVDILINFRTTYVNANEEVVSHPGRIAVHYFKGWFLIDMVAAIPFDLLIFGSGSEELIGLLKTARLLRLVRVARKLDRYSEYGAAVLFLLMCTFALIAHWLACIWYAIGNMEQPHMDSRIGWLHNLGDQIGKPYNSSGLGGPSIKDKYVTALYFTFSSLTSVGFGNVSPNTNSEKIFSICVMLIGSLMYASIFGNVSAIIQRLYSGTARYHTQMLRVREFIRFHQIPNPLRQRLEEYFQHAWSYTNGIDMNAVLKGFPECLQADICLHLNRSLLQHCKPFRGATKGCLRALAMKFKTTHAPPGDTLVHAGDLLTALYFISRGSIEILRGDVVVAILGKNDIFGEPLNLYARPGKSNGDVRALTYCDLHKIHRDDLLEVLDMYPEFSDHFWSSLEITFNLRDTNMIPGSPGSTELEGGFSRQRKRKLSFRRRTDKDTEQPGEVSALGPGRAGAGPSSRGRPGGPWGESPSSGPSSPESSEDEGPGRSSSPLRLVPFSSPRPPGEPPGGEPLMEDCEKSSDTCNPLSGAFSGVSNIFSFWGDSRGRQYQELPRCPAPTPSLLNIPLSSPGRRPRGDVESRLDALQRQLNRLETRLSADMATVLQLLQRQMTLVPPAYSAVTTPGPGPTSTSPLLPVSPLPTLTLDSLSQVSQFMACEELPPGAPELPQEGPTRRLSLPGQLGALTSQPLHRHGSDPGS

`COc1c(-c2nnn[nH]2)ccc(F)c1-c1ccc(N[C@H]2CC[C@H](Nc3ncc(C4CC4)nn3)C2)nc1` [Example 169, (1S,3S)—N^1-(6-Cyclopropyl-1,2,4-triazin-3-yl)-N^3-(5-(6-fluoro-2-methoxy-3-(1H-tetrazol-5-yl)phenyl)pyridin-2-yl)cyclopentane-1,3-diamine]: the figures for the IC50 in test [1], in test [2] and in test [3] were 0.027 µM, 0.31 µM and above 40.1 µM, respectively.
In the same order, the values of `COc1cccnc1-c1ccc(N[C@H]2CC[C@H](Nc3ncc(C)nn3)C2)nc1` [Example 304, (1S,3S)—N′-(3-Methoxy-[2,3′-bipyridin]-6′-yl)-N^3-(6-methyl-1,2,4-triazin-3-yl)cyclopentane-1,3-diamine] are 0.096 µM, above 10 µM and above 40.1 µM.
For `COc1cccc(-c2ccc(N[C@H]3CC[C@H](Nc4ncc(C)nn4)C3)nc2)n1` [Example 305, (1S,3S)—N′-(6-Methoxy-[2,3′-bipyridin]-6′-yl)-N^3-(6-methyl-1,2,4-triazin-3-yl)cyclopentane-1,3-diamine] the same measures were 0.091 µM, above 10 µM and 3.2 µM.
`Cc1cnc(N[C@H]2CC[C@H](Nc3ccc(-c4ncccc4C)cn3)C2)nn1` [Example 248]: the 50% inhibitory concentration (IC50) is 0.013 µM in test [1], above 10 µM in test [2] and above 40.1 µM in test [3].
For `CN(CCO)C(=O)c1cnc(N[C@H]2CC[C@H](Nc3ccc(-n4ccccc4=O)cn3)C2)nn1` [Example 151, N-(2-Hydroxyethyl)-N-methyl-3-(((1S,3S)-3-((2-oxo-2H-[1,3′-bipyridin]-6′-yl)amino)cyclopentyl)amino)-1,2,4-triazine-6-carboxamide] the same measures were 2.25 µM, above 10 µM and above 40.1 µM.
`Cn1cccc(-c2cnc(N[C@H]3CC[C@H](Nc4ncc(C5CC5)nn4)C3)cn2)c1=O` [Example 113, 3-(5-(((1S,3S)-3-((6-Cyclopropyl-1,2,4-triazin-3-yl)amino)cyclopentyl)amino)pyrazin-2-yl)-1-methylpyridin-2(1H)-one]: the IC50 in test [1] was 0.041 µM; in test [2], above 10 µM; in test [3], above 40 µM.
With `Cc1cnc(N[C@H]2CC[C@H](Nc3ccc(-n4cc5ccccc5n4)cn3)C2)nn1` [Example 312, (1S,3S)—N^1-(5-(2H-Indazol-2-yl)pyridin-2-yl)-N^3-(6-methyl-1,2,4-triazin-3-yl)cyclopentane-1,3-diamine], the results for the IC50 in test [1], in test [2] and in test [3] were 0.037 µM, above 10 µM and 4.2 µM, respectively.
In the same order, the values of `NC(=O)CNC(=O)c1cnc(N[C@H]2CC[C@H](Nc3ccc(-n4ccccc4=O)cn3)C2)nn1` [Example 68, N-(2-Amino-2-oxoethyl)-3-(((1S,3S)-3-((2-oxo-2H-[1,3′-bipyridin]-6′-yl)amino)cyclopentyl)amino)-1,2,4-triazine-6-carboxamide] are 0.168 µM, above 10 µM and above 40 µM.
In the case of `Cn1cccc(-c2ccc(N[C@H]3CC[C@H](Nc4ncc(C5CC5)nn4)C3)nc2)c1=O` [Example 60, 6′-(((1S,3S)-3-((6-Cyclopropyl-1,2,4-triazin-3-yl)amino)cyclopentyl)amino)-1-methyl-[3,3′-bipyridin]-2(1H)-one], the results for the IC50 in test [1], in test [2] and in test [3] were 0.0091 µM, above 10 µM and 21 µM, respectively.
For `COc1ccccc1-c1ccc(N[C@H]2CC[C@H](Nc3ncc(C)nn3)C2)nc1` [Example 306, (1S,3S)—N′-(5-(2-Methoxyphenyl)pyridin-2-yl)-N^3-(6-methyl-1,2,4-triazin-3-yl)cyclopentane-1,3-diamine] the same measures were 0.302 µM, above 10 µM and 4.5 µM.
